# Experimental data published in patent US10770169B2, “Method of providing a treatment to a subject based on a dynamic pathway map” (THE REGENTS OF THE UNIVERSITY OF CALIFORNIA, priority 2010, dated 2020).
# Where two headings read alike, the source gives them in different places.
# Tests used:
# [1] = test system: panel of 55 breast cancer cell lines; assay: Cell growth inhibition assay (Cell Titer Glo, 72 h, 9 doses; GI50, TGI, LC50); assay type: cell-based, human; details: Homo sapiens, read-out: GI50 (converted)
# [2] = test system: luminal, basal, claudin-low and ERBB2AMP breast cancer cell lines; assay: Associations of clinically relevant subtypes and response (non-parametric ANOVA or t-test on GI50 ranks); assay type: cell-based, human; details: Table 6; most sensitive subtype, FDR p<0.20
# Method in brief: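 GI50 values were compared between cell-line subtype groups by non-parametric ANOVA or t-test on ranks. P-values from three test sets were combined and FDR-corrected. Significant three-group effects were followed by post-hoc comparison of each group against all others, and FDR p<0.20 counted as significant.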
smiles,measurement,setting,value
C#Cc1cccc(Nc2ncnc3cc(OCCOC)c(OCCOC)cc23)c1 [Erlotinib],GI50,"[1]; AU565, AU565 cell line, censored GI50 values",13.2 µM
same,GI50,"[1]; AU565, cell line AU565",13.2 µM
same,GI50,"[1]; BT-20, BT20 cell line, censored GI50 values",2 µM
same,GI50,"[1]; BT-20, cell line BT20",2 µM
same,GI50,"[1]; BT-474, BT474 cell line, censored GI50 values",10.5 µM
same,GI50,"[1]; BT-474, cell line BT474",10.5 µM
same,GI50,"[1]; BT-483, cell line BT483",66.1 µM
same,GI50,"[1]; BT-549, BT549 cell line, censored GI50 values",41.7 µM
same,GI50,"[1]; BT-549, cell line BT549",41.7 µM
same,GI50,"[1]; CAMA-1, cell line CAMA1",66.1 µM
same,GI50,"[1]; HCC38, cell line HCC38",66.1 µM
same,GI50,"[1]; HCC70, HCC70 cell line, censored GI50 values",1.74 µM
same,GI50,"[1]; HCC70, cell line HCC70",1.74 µM
same,GI50,"[1]; HCC202, HCC202 cell line, censored GI50 values",37.2 µM
same,GI50,"[1]; HCC202, cell line HCC202",37.2 µM
same,GI50,"[1]; HCC1143, cell line HCC1143",57.5 µM
same,GI50,"[1]; HCC1187, HCC1187 cell line, censored GI50 values",7.59 µM
same,GI50,"[1]; HCC1187, cell line HCC1187",7.59 µM
same,GI50,"[1]; HCC1395, HCC1395 cell line, censored GI50 values",39.8 µM
same,GI50,"[1]; HCC1395, cell line HCC1395",39.8 µM
same,GI50,"[1]; HCC1419, HCC1419 cell line, censored GI50 values",10.7 µM
same,GI50,"[1]; HCC1419, cell line HCC1419",10.7 µM
same,GI50,"[1]; HCC1428, HCC1428 cell line, censored GI50 values",17.8 µM
same,GI50,"[1]; HCC1428, cell line HCC1428",17.8 µM
same,GI50,"[1]; HCC1500, HCC1500 cell line, censored GI50 values",6.46 µM
same,GI50,"[1]; HCC1500, cell line HCC1500",6.46 µM
same,GI50,"[1]; HCC1806, HCC1806 cell line, censored GI50 values",4.27 µM
same,GI50,"[1]; HCC1806, cell line HCC1806",4.27 µM
same,GI50,"[1]; HCC1937, HCC1937 cell line, censored GI50 values",38.9 µM
same,GI50,"[1]; HCC1937, cell line HCC1937",38.9 µM
same,GI50,"[1]; HCC1954, HCC1954 cell line, censored GI50 values",3.09 µM
same,GI50,"[1]; HCC1954, cell line HCC1954",3.09 µM
same,GI50,"[1]; HCC2185 cell line, censored GI50 values",23.4 µM
same,GI50,"[1]; HCC3153 cell line, censored GI50 values",31.6 µM
same,GI50,"[1]; LY2 cell line, censored GI50 values",33.1 µM
same,GI50,"[1]; MCF7, cell line MCF7",66.1 µM
same,GI50,"[1]; MDA-MB-157, cell line MDAMB157",50.1 µM
same,GI50,"[1]; MDA-MB-175-VII, MDAMB175VII cell line, censored GI50 values",3.09 µM
same,GI50,"[1]; MDA-MB-231, MDAMB231 cell line, censored GI50 values",39.8 µM
same,GI50,"[1]; MDA-MB-231, cell line MDAMB231",39.8 µM
same,GI50,"[1]; MDA-MB-361, cell line MDAMB361",64.6 µM
same,GI50,"[1]; MDA-MB-436, cell line MDAMB436",55 µM
same,GI50,"[1]; MDA-MB-453, cell line MDAMB453",44.7 µM
same,GI50,"[1]; MDA-MB-468, MDAMB468 cell line, censored GI50 values",21.4 µM
same,GI50,"[1]; MDA-MB-468, cell line MDAMB468",21.4 µM
same,GI50,"[1]; SK-BR-3, SKBR3 cell line, censored GI50 values",15.8 µM
same,GI50,"[1]; SK-BR-3, cell line SKBR3",15.8 µM
same,GI50,"[1]; SUM52PE, SUM52PE cell line, censored GI50 values",31.6 µM
same,GI50,"[1]; SUM52PE, cell line SUM52PE",31.6 µM
same,GI50,"[1]; SUM149PT, SUM149PT cell line, censored GI50 values",2 µM
same,GI50,"[1]; SUM149PT, cell line SUM149PT",2 µM
same,GI50,"[1]; SUM185PE, cell line SUM185PE",66.1 µM
same,GI50,"[1]; SUM225CWN, SUM225CWN cell line, censored GI50 values",7.08 µM
same,GI50,"[1]; SUM225CWN, cell line SUM225CWN",7.08 µM
same,GI50,"[1]; SUM1315MO2, SUM1315MO2 cell line, censored GI50 values",7.41 µM
same,GI50,"[1]; SUM-159-PT, SUM159PT cell line, censored GI50 values",11.7 µM
same,GI50,"[1]; SUM-159-PT, cell line SUM159PT",11.7 µM
same,GI50,"[1]; T47D, cell line T47D",50.1 µM
same,GI50,"[1]; UACC-812, UACC812 cell line, censored GI50 values",12.3 µM
same,GI50,"[1]; UACC-812, cell line UACC812",12.3 µM
same,GI50,"[1]; UACC-893, UACC893 cell line, censored GI50 values",12.3 µM
same,GI50,"[1]; UACC-893, cell line UACC893",12.3 µM
same,GI50,"[1]; ZR-75-1, cell line ZR751",66.1 µM
same,GI50,"[1]; ZR-75B, cell line ZR75B",66.1 µM
same,GI50,[1]; cell line 600MPE,52.5 µM
same,GI50,[1]; cell line HCC2185,23.4 µM
same,GI50,[1]; cell line HCC3153,31.6 µM
same,GI50,[1]; cell line LY2,33.1 µM
same,GI50,[1]; cell line MDAMB134V,66.1 µM
same,GI50,[1]; cell line MDAMB175V,3.09 µM
same,GI50,[1]; cell line SUM1315MO,7.41 µM
same,Subtype specificity,[2],Basal
